Measurements as given in ChEMBL document CHEMBL1201862, “PubChem BioAssay data set” (2004).
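Cells were grown in 96-well plates and exposed to each compound for 48 hours at five concentrations; endpoints were interpolated linearly between bracketing concentrations, or set to the highest concentration if not reached. GI50: concentration for 50% inhibition of growth.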 The source made the active and inactive calls. Cut-off read from the data, not from the text of the source: active = GI50 up to about 1.1 µM and inactive = higher.

Experiments:
Test in all cases: DTP human tumour cell line panel, 48 h
CCRF-CEM = system: CCRF-CEM
MCF7 = system: MCF7
HOP-92 = system: HOP-92
MOLT-4 = system: MOLT-4
SNB-19 = system: SNB-19
CAKI-1 = system: CAKI-1
LOX IMVI = system: LOX IMVI
SR = system: SR
OVCAR-4 = system: OVCAR-4
DU-145 = system: DU-145
BT-549 = system: BT-549
MDA-MB-231 = system: MDA-MB-231
SW-620 = system: SW-620
786-0 = system: 786-0
HT-29 = system: HT-29
A498 = system: A498
ACHN = system: ACHN
SF-539 = system: SF-539
UACC-62 = system: UACC-62
SF-295 = system: SF-295

Structure (SMILES) | GI50 (CCRF-CEM) | GI50 (MCF7) | GI50 (HOP-92) | GI50 (MOLT-4) | GI50 (SNB-19) | GI50 (CAKI-1) | GI50 (LOX IMVI) | GI50 (SR) | GI50 (OVCAR-4) | GI50 (DU-145) | GI50 (BT-549) | GI50 (MDA-MB-231) | GI50 (SW-620) | GI50 (786-0) | GI50 (HT-29) | GI50 (A498) | GI50 (ACHN) | GI50 (SF-539) | GI50 (UACC-62) | GI50 (SF-295)
N#Cc1cc2c(cc1Cl)Sc1nccn1S2(=O)=O | 0.506 µM (active) | 3.8 µM (inactive) | 4.93 µM (inactive) | 0.667 µM (active) | 8.2 µM (inactive) | 1.4 µM (inactive) | 1.57 µM (inactive) | 1 µM (active) | 6.05 µM (inactive) | 2.33 µM (inactive) | 3.32 µM (inactive) | 3.59 µM (inactive) | 3.54 µM (inactive) | 14.8 µM (inactive) | 0.977 µM (active) | 18.3 µM (inactive) | 2.08 µM (inactive) | 3.7 µM (inactive) | 2.55 µM (inactive) | 4.31 µM (inactive)
CC(=O)Nc1cc(C(=O)Nc2cc(C(=O)N3CC(CCl)c4c3cc(N)c3ccccc43)nn2C)nn1C (stereo not given) | < 0.01 µM (active) | 0.168 µM (active) | < 0.0218 µM (active) | < 0.0112 µM (active) | 0.127 µM (active) | < 0.0393 µM (active) | 0.0117 µM (active) | < 0.01 µM (active) | 0.171 µM (active) | < 0.01 µM (active) | 0.185 µM (active) | 0.185 µM (active) | < 0.0383 µM (active) | 0.0893 µM (active) | 0.216 µM (active) | < 0.0115 µM (active) | < 0.0148 µM (active) | 0.0191 µM (active) | < 0.0118 µM (active) | 0.287 µM (active)
CCCCCCCCCCCC[C@@H](O)[C@H]1CCC([C@H](O)CCCCC(=O)CCCCCCCC2=C[C@H](C)OC2=O)O1 (stereo not given in full) | 4.59 µM (inactive) | 2.45 µM (inactive) | > 27 µM (inactive) | 2.62 µM (inactive) | > 28.2 µM (inactive) | > 36.4 µM (inactive) | 2.34 µM (inactive) | 0.0773 µM (active) | > 24.9 µM (inactive) | > 50 µM (inactive) | 9.06 µM (inactive) | > 41.7 µM (inactive) | > 29.1 µM (inactive) | > 31.6 µM (inactive) | 14.6 µM (inactive) | 26.2 µM (inactive) | > 33.6 µM (inactive) | > 50 µM (inactive) | 17.4 µM (inactive) | 20.1 µM (inactive)
COc1c(O)ccc(C2=Cc3ccc(O)cc3OC2)c1OC | 4.37 µM (inactive) | 32.4 µM (inactive) | 24 µM (inactive) | 6.82 µM (inactive) | 55.3 µM (inactive) | 8.81 µM (inactive) | 26.1 µM (inactive) | 2.15 µM (inactive) | 23.9 µM (inactive) | 26.7 µM (inactive) | 23.6 µM (inactive) | 20.7 µM (inactive) | 26.7 µM (inactive) | 16.3 µM (inactive) | 30.4 µM (inactive) | 27.9 µM (inactive) | 6.56 µM (inactive) | 16.3 µM (inactive) | 16.2 µM (inactive) | 22.8 µM (inactive)
O=C1c2ccccc2C(=O)[C@@]23O[C@@]12C1(Oc2cccc4cccc(c24)O1)[C@@H]1O[C@@H]1[C@@H]3O | 1.76 µM (inactive) | 3.66 µM (inactive) | 15.8 µM (inactive) | 2.7 µM (inactive) | 13.3 µM (inactive) | 11.1 µM (inactive) | 4.22 µM (inactive) | 1.43 µM (inactive) | 4.19 µM (inactive) | 14.6 µM (inactive) | 2.9 µM (inactive) | 14.8 µM (inactive) | 6.93 µM (inactive) | 4.23 µM (inactive) | 4.94 µM (inactive) | 26.9 µM (inactive) | 12.5 µM (inactive) | 2.64 µM (inactive) | 14.2 µM (inactive) | 12.9 µM (inactive)
CC1(C)OC(=C(C#N)C#N)C(C#N)=C1/C=C/c1ccncc1 | 0.851 µM (active) | 2.04 µM (inactive) | 2.42 µM (inactive) | 2.03 µM (inactive) | 2.59 µM (inactive) | 1.97 µM (inactive) | 1.86 µM (inactive) | 2.41 µM (inactive) | 2.96 µM (inactive) | 2.53 µM (inactive) | 1.65 µM (inactive) | 2.16 µM (inactive) | 2.27 µM (inactive) | 2.03 µM (inactive) | 2.11 µM (inactive) | 7.69 µM (inactive) | 1.87 µM (inactive) | 1.8 µM (inactive) | 1.95 µM (inactive) | 2.24 µM (inactive)
O=C1CC(n2cccc2)c2cc(Br)sc21 (stereo not given) | 18.7 µM (inactive) | 69.5 µM (inactive) | > 100 µM (inactive) | 16.1 µM (inactive) | > 100 µM (inactive) | > 100 µM (inactive) | 31.9 µM (inactive) | 15.8 µM (inactive) | > 100 µM (inactive) | > 100 µM (inactive) | > 100 µM (inactive) | > 100 µM (inactive) | 35 µM (inactive) | 42 µM (inactive) | > 100 µM (inactive) | > 100 µM (inactive) | > 100 µM (inactive) | > 100 µM (inactive) | > 100 µM (inactive) | > 100 µM (inactive)
CC(C)NC(=O)OCc1c(COC(=O)NC(C)C)c(-c2cc[n+](COC(=O)C3CCCCC3)cc2)n2c1CCC2 | 44.8 µM (inactive) | 83.4 µM (inactive) | > 100 µM (inactive) | 40.8 µM (inactive) | > 100 µM (inactive) | 50 µM (inactive) | > 100 µM (inactive) | 9.25 µM (inactive) | > 100 µM (inactive) | > 100 µM (inactive) | > 100 µM (inactive) | > 100 µM (inactive) | > 100 µM (inactive) | > 100 µM (inactive) | > 100 µM (inactive) | > 100 µM (inactive) | 44.9 µM (inactive) | 21.9 µM (inactive) | 99.8 µM (inactive) | > 100 µM (inactive)
Cc1cccc2cc3ccc4ccccc4c3cc12 | 20.1 µM (inactive) | 8.28 µM (inactive) | 98.9 µM (inactive) | 25.7 µM (inactive) | 76.2 µM (inactive) | 87.1 µM (inactive) | 39.4 µM (inactive) | 22.2 µM (inactive) | 47.3 µM (inactive) | 66.5 µM (inactive) | > 100 µM (inactive) | 51.3 µM (inactive) | 44 µM (inactive) | 41.7 µM (inactive) | 30.7 µM (inactive) | 44.2 µM (inactive) | 46.7 µM (inactive) | 74 µM (inactive) | 80.9 µM (inactive) | 40.8 µM (inactive)
Cc1cc(N(CCOS(C)(=O)=O)CCOS(C)(=O)=O)ccc1/C=N/c1ccc(-c2nc(Cc3ccccc3)sc2C)cc1 | 0.471 µM (active) | 3.52 µM (inactive) | 8.71 µM (inactive) | 1.23 µM (inactive) | 8.3 µM (inactive) | 1.23 µM (inactive) | 5.37 µM (inactive) | 1.32 µM (inactive) | 15.5 µM (inactive) | 0.834 µM (active) | 9.12 µM (inactive) | 15.3 µM (inactive) | 8.57 µM (inactive) | 1.28 µM (inactive) | 5.3 µM (inactive) | 1.55 µM (inactive) | 0.404 µM (active) | 1.8 µM (inactive) | 1.47 µM (inactive) | 1.57 µM (inactive)
Cc1ccc(S(=O)(=O)n2ccn3c(=O)cc(C)nc23)cc1 | > 10 µM (inactive) | > 10 µM (inactive) | > 10 µM (inactive) | > 10 µM (inactive) | > 10 µM (inactive) | > 10 µM (inactive) | > 10 µM (inactive) | > 10 µM (inactive) | > 10 µM (inactive) | > 10 µM (inactive) | > 10 µM (inactive) | > 10 µM (inactive) | > 10 µM (inactive) | > 10 µM (inactive) | > 10 µM (inactive) | > 10 µM (inactive) | > 10 µM (inactive) | > 10 µM (inactive) | > 10 µM (inactive) | > 10 µM (inactive)
C=CCn1cnc2c(O)nc(Nc3ccccc3)nc21 | > 100 µM (inactive) | > 100 µM (inactive) | > 100 µM (inactive) | 12.8 µM (inactive) | > 100 µM (inactive) | > 100 µM (inactive) | > 100 µM (inactive) | > 100 µM (inactive) | > 100 µM (inactive) | > 100 µM (inactive) | > 100 µM (inactive) | > 100 µM (inactive) | > 100 µM (inactive) | > 100 µM (inactive) | > 100 µM (inactive) | > 100 µM (inactive) | > 100 µM (inactive) | > 100 µM (inactive) | > 100 µM (inactive) | > 100 µM (inactive)
COc1cccc2c1C(=O)OC2c1cccc2ccccc12 (stereo not given) | > 100 µM (inactive) | 31.6 µM (inactive) | 30.9 µM (inactive) | > 100 µM (inactive) | 61.2 µM (inactive) | > 100 µM (inactive) | > 100 µM (inactive) | > 100 µM (inactive) | 37.8 µM (inactive) | > 100 µM (inactive) | > 100 µM (inactive) | 36.4 µM (inactive) | > 100 µM (inactive) | 50.8 µM (inactive) | > 100 µM (inactive) | > 52.5 µM (inactive) | > 100 µM (inactive) | 63.7 µM (inactive) | > 100 µM (inactive) | 33.6 µM (inactive)
O=C(c1ccccn1)c1nnn2ccccc12 | > 100 µM (inactive) | > 100 µM (inactive) | > 100 µM (inactive) | > 100 µM (inactive) | > 100 µM (inactive) | > 100 µM (inactive) | > 100 µM (inactive) | > 100 µM (inactive) | > 100 µM (inactive) | > 100 µM (inactive) | > 100 µM (inactive) | > 100 µM (inactive) | > 100 µM (inactive) | > 100 µM (inactive) | > 100 µM (inactive) | > 100 µM (inactive) | > 100 µM (inactive) | > 100 µM (inactive) | > 100 µM (inactive) | > 100 µM (inactive)
